Organism: Rattus norvegicus
Test: DrugMatrix - Regimen: Daily Repeat
Type: toxicity, organism-based, Sprague-Dawley
Set-up: regimen Daily Repeat, gender Male, age 6-8 weeks
Conditions: in vivo, po, route oral GAVAGE, vehicle 100 % WATER; for ABSOLUTE BASOPHIL / ABSOLUTE EOSINOPHIL / ABSOLUTE LYMPHOCYTE / ABSOLUTE MONOCYTE / ABSOLUTE SEGMENTED NEUTROPHIL / BASOPHIL / EOSINOPHIL / ERYTHROCYTE COUNT / HEMATOCRIT / HEMOGLOBIN / LEUKOCYTE COUNT / LYMPHOCYTE / MEAN CORPUSCULAR HEMOGLOBIN / MEAN CORPUSCULAR HEMOGLOBIN CONCENTRATION / MEAN CORPUSCULAR VOLUME / MONOCYTE / NEUTROPHIL / NUCLEATED RED BLOOD CELLS / PLATELET COUNT: tissue Blood; for ALANINE AMINOTRANSFERASE / ALBUMIN / ALKALINE PHOSPHATASE / ASPARTATE AMINOTRANSFERASE / BLOOD UREA NITROGEN / CARBON DIOXIDE / CHLORIDE / CHOLESTEROL / CREATINE PHOSPHOKINASE / CREATININE / GLUCOSE / LACTATE DEHYDROGENASE / LIPASE / PHOSPHORUS / POTASSIUM / SODIUM / TOTAL BILIRUBIN / TOTAL PROTEIN / URIC ACID: tissue Plasma
[1] = 20 mg/kg, 120 h, dose level Low, time 5 day
[2] = 160 mg/kg, 72 h, dose level High, time 3 day
[3] = 160 mg/kg, 120 h, dose level High, time 5 day

CN(C)CCC=C1c2ccccc2CCc2ccccc21 [AMITRIPTYLINE]
ABSOLUTE BASOPHIL [1]: 0 CELLS/uL
ABSOLUTE EOSINOPHIL [1]: 0 CELLS/uL
ABSOLUTE LYMPHOCYTE [1]: 11980.67 CELLS/uL
ABSOLUTE MONOCYTE [1]: 40.67 CELLS/uL
ABSOLUTE SEGMENTED NEUTROPHIL [1]: 1045.33 CELLS/uL
BASOPHIL [1]: 0%
EOSINOPHIL [1]: 0%
ERYTHROCYTE COUNT [1]: 5.76 x10E6/uL
HEMATOCRIT [1]: 35.93%
HEMOGLOBIN [1]: 14.33 G/DL
LEUKOCYTE COUNT [1]: 13.07 x10E3/uL
LYMPHOCYTE [1]: 91.33%
MEAN CORPUSCULAR HEMOGLOBIN [1]: 24.93 pg
MEAN CORPUSCULAR HEMOGLOBIN CONCENTRATION [1]: 39.9 G/DL
MEAN CORPUSCULAR VOLUME [1]: 62.43 fL
MONOCYTE [1]: 0.33%
NEUTROPHIL [1]: 8.33%
NUCLEATED RED BLOOD CELLS [1]: 0.33 /100WBC
PLATELET COUNT [1]: 1316.67 x10E3/uL
ALANINE AMINOTRANSFERASE [1]: 43.67 u/L
ALBUMIN [1]: 4 G/DL
ALKALINE PHOSPHATASE [1]: 394 u/L
ASPARTATE AMINOTRANSFERASE [1]: 89.67 u/L
BLOOD UREA NITROGEN [1]: 15.33 mg/dL
CARBON DIOXIDE [1]: 30 mmol/L
CHLORIDE [1]: 100.33 MEQ/L
CHOLESTEROL [1]: 66.67 mg/dL
CREATINE PHOSPHOKINASE [1]: 486 u/L
CREATININE [1]: 0.18 mg/dL
GLUCOSE [1]: 145.33 mg/dL
LACTATE DEHYDROGENASE [1]: 605.67 u/L
LIPASE [1]: 11 u/L
PHOSPHORUS [1]: 12.43 mg/dL
POTASSIUM [1]: 6.68 MEQ/L
SODIUM [1]: 141.6 MEQ/L
TOTAL BILIRUBIN [1]: 0.2 mg/dL
TOTAL PROTEIN [1]: 5.97 G/DL
URIC ACID [1]: 1.87 mg/dL
ABSOLUTE BASOPHIL [2]: 0 CELLS/uL
ABSOLUTE EOSINOPHIL [2]: 85.33 CELLS/uL
ABSOLUTE LYMPHOCYTE [2]: 16571 CELLS/uL
ABSOLUTE MONOCYTE [2]: 212.67 CELLS/uL
ABSOLUTE SEGMENTED NEUTROPHIL [2]: 697.67 CELLS/uL
BASOPHIL [2]: 0%
EOSINOPHIL [2]: 0.67%
ERYTHROCYTE COUNT [2]: 5.93 x10E6/uL
HEMATOCRIT [2]: 38.63%
HEMOGLOBIN [2]: 15.33 G/DL
LEUKOCYTE COUNT [2]: 17.57 x10E3/uL
LYMPHOCYTE [2]: 94%
MEAN CORPUSCULAR HEMOGLOBIN [2]: 25.83 pg
MEAN CORPUSCULAR HEMOGLOBIN CONCENTRATION [2]: 39.7 G/DL
MEAN CORPUSCULAR VOLUME [2]: 65.13 fL
MONOCYTE [2]: 1%
NEUTROPHIL [2]: 4.33%
NUCLEATED RED BLOOD CELLS [2]: 0 /100WBC
PLATELET COUNT [2]: 1403.33 x10E3/uL
ALANINE AMINOTRANSFERASE [2]: 60 u/L
ALBUMIN [2]: 4.1 G/DL
ALKALINE PHOSPHATASE [2]: 422 u/L
ASPARTATE AMINOTRANSFERASE [2]: 80.33 u/L
BLOOD UREA NITROGEN [2]: 14 mg/dL
CARBON DIOXIDE [2]: 34 mmol/L
CHLORIDE [2]: 102 MEQ/L
CHOLESTEROL [2]: 83 mg/dL
CREATINE PHOSPHOKINASE [2]: 464 u/L
CREATININE [2]: 0.15 mg/dL
GLUCOSE [2]: 151.67 mg/dL
LACTATE DEHYDROGENASE [2]: 162.67 u/L
LIPASE [2]: 10.33 u/L
PHOSPHORUS [2]: 11.3 mg/dL
POTASSIUM [2]: 5.61 MEQ/L
SODIUM [2]: 145.53 MEQ/L
TOTAL BILIRUBIN [2]: 0.13 mg/dL
TOTAL PROTEIN [2]: 5.93 G/DL
URIC ACID [2]: 1.57 mg/dL
ABSOLUTE BASOPHIL [3]: 0 CELLS/uL
ABSOLUTE EOSINOPHIL [3]: 42.33 CELLS/uL
ABSOLUTE LYMPHOCYTE [3]: 10052.67 CELLS/uL
ABSOLUTE MONOCYTE [3]: 70 CELLS/uL
ABSOLUTE SEGMENTED NEUTROPHIL [3]: 435 CELLS/uL
BASOPHIL [3]: 0%
EOSINOPHIL [3]: 0.33%
ERYTHROCYTE COUNT [3]: 5.82 x10E6/uL
HEMATOCRIT [3]: 36.27%
HEMOGLOBIN [3]: 14.2 G/DL
LEUKOCYTE COUNT [3]: 10.6 x10E3/uL
LYMPHOCYTE [3]: 94.67%
MEAN CORPUSCULAR HEMOGLOBIN [3]: 24.37 pg
MEAN CORPUSCULAR HEMOGLOBIN CONCENTRATION [3]: 39.17 G/DL
MEAN CORPUSCULAR VOLUME [3]: 62.27 fL
MONOCYTE [3]: 0.67%
NEUTROPHIL [3]: 4.33%
NUCLEATED RED BLOOD CELLS [3]: 0.33 /100WBC
PLATELET COUNT [3]: 1249.67 x10E3/uL
ALANINE AMINOTRANSFERASE [3]: 49.67 u/L
ALBUMIN [3]: 4 G/DL
ALKALINE PHOSPHATASE [3]: 363.67 u/L
ASPARTATE AMINOTRANSFERASE [3]: 96.67 u/L
BLOOD UREA NITROGEN [3]: 14.67 mg/dL
CARBON DIOXIDE [3]: 30.33 mmol/L
CHLORIDE [3]: 100.67 MEQ/L
CHOLESTEROL [3]: 72.67 mg/dL
CREATINE PHOSPHOKINASE [3]: 1225 u/L
CREATININE [3]: 0.16 mg/dL
GLUCOSE [3]: 188 mg/dL
LACTATE DEHYDROGENASE [3]: 246.67 u/L
LIPASE [3]: 10.33 u/L
PHOSPHORUS [3]: 12.93 mg/dL
POTASSIUM [3]: 5.4 MEQ/L
SODIUM [3]: 143.4 MEQ/L
TOTAL BILIRUBIN [3]: 0.17 mg/dL
TOTAL PROTEIN [3]: 6.23 G/DL
URIC ACID [3]: 1.83 mg/dL
